Twelve molecules from ChEMBL document CHEMBL2046399, “Effect of C-ring modifications on the cytotoxicity of spirostan saponins and related glycosides” (Bioorg Med Chem, 2012) can be followed below.

Series [1] deals with HL-60. As to the kind of experiment: Cytotoxicity against human HL60 cells after 72 hrs by MTT assay. The class given is functional, cell-based. The following applies: HL-60, 72 h. On the technique in general: Formazan colour is commonly taken as a measure of viable cells.
In series [2] the test system is HL-60. Kind of series: Cytotoxicity against human HL60 cells at 3 to 60 uM after 24 hrs by MTT assay. The series is classed as functional, cell-based.
The subject of another series is PBMC. Kind of series: Cytotoxicity against human PBMC at 3 to 60 uM after 24 hrs by MTT assay. The class given is cell-based.
Series [3] in a line: Cytotoxicity against human PBMC assessed as cell viability at 30 uM after 24 hrs by MTT assay relative to control. The series is classed as cell-based. The following applies: PBMC (peripheral blood mononuclear cells), read-out: Activity.
Series [4] deals with HL-60. Kind of series: Cytotoxicity against human HL60 cells assessed as cell viability at 30 uM after 24 hrs by MTT assay relative to control. The series is classed as functional. The following applies: HL-60, 24 h, read-out: Activity.
For series [5], the system named is HL-60. Kind of series: Cytotoxicity against human HL60 cells assessed as cell viability at 10 uM after 24 hrs by MTT assay relative to control. The series is classed as functional. Particulars: HL-60, 24 h, read-out: Activity.
Series [6] is described as follows: Cytotoxicity against human PBMC assessed as cell viability at 10 uM after 24 hrs by MTT assay relative to control. The class given is cell-based. The following applies: PBMC (peripheral blood mononuclear cells), read-out: Activity.

What is called IC50 is the concentration that inhibits the measured activity by half.

The source made the active and inactive calls. The calls are words filed in the database; no cut-off is given here.

For the molecule `C[C@@H]1CC[C@@]2(OC1)O[C@H]1C[C@H]3[C@@H]4CC[C@H]5C[C@@H](O[C@@H]6O[C@H](COC(=O)C(C)(C)C)[C@@H](O)[C@H](OC(=O)C(C)(C)C)[C@H]6O)CC[C@]5(C)C4=CC(=O)[C@]3(C)[C@H]1[C@@H]2C`, the IC50 with HL-60 [1] was 5.9 µM.

Molecule `C[C@@H]1CC[C@@]2(OC1)O[C@H]1C[C@H]3[C@@H]4CC[C@H]5C[C@@H](O[C@@H]6O[C@H](COC(=O)C(C)(C)C)[C@@H](O)[C@H](OC(=O)C(C)(C)C)[C@H]6O)CC[C@]5(C)[C@H]4CC[C@]3(C)[C@H]1[C@@H]2C` had an IC50 in the series on HL-60 [1] of 8.9 µM. For the same molecule, the outcome with HL-60 [2] was Active. The Activity entry in the series with PBMC is “Toxic”.

As to `C=C1C[C@H]2[C@@H](CC[C@H]3C[C@@H](O[C@@H]4O[C@H](CO)[C@@H](O[C@@H]5O[C@@H](C)[C@H](O)[C@@H](O)[C@H]5O)[C@H](O)[C@H]4O[C@@H]4O[C@@H](C)[C@H](O)[C@@H](O)[C@H]4O)CC[C@@]32C)[C@@H]2C[C@@H]3O[C@]4(CC[C@@H](C)CO4)[C@@H](C)[C@@H]3[C@@]12C`, the half-inhibitory concentration (IC50) in the series on HL-60 [1] was 9.7 µM. In series [3], the viability at 24 h, 30 µM stood at 64.2%. In the series with HL-60 [4], the viability at 30 µM turned out to be 23%.

On to `C[C@@H]1CC[C@@]2(OC1)O[C@H]1C[C@@H]([C@@H]3CC[C@H]4C[C@@H](O[C@@H]5O[C@H](CO)[C@@H](O[C@@H]6O[C@@H](C)[C@H](O)[C@@H](O)[C@H]6O)[C@H](O)[C@H]5O[C@@H]5O[C@@H](C)[C@H](O)[C@@H](O)[C@H]5O)CC[C@]4(C)[C@H]3CC(=O)O)[C@](C)(O)[C@H]1[C@@H]2C`, for which the IC50 in the series with HL-60 [1] was greater than 100 µM.

Consider `C=C1C[C@H]2[C@@H](CC[C@H]3C[C@@H](O[C@@H]4O[C@H](COC(=O)C(C)(C)C)[C@@H](O)[C@H](OC(=O)C(C)(C)C)[C@H]4O)CC[C@@]32C)[C@@H]2C[C@@H]3O[C@]4(CC[C@@H](C)CO4)[C@@H](C)[C@@H]3[C@@]12C`, for which, in the series with HL-60 [1], half-maximal inhibition (IC50) was put at 15.7 µM. The outcome with HL-60 [2] was Active. Further, in the series with PBMC, the Activity entry is “Toxic”.

With `C[C@@H]1CC[C@@]2(OC1)O[C@H]1C[C@H]3[C@@H]4CC[C@H]5C[C@@H](O[C@@H]6O[C@H](CO)[C@@H](O[C@@H]7O[C@@H](C)[C@H](O)[C@@H](O)[C@H]7O)[C@H](O)[C@H]6O[C@@H]6O[C@@H](C)[C@H](O)[C@@H](O)[C@H]6O)CC[C@]5(C)[C@H]4CC[C@]3(C)[C@H]1[C@@H]2C`, in the series on HL-60 [1], the IC50 was 2.6 µM. Also, the viability at 10 µM with HL-60 [5] is 17%. Also, the viability at 24 h, 10 µM in series [6] stood at 45%.

Molecule `C[C@@H]1CC[C@@]2(OC1)O[C@H]1C[C@H]3[C@@H]4CC[C@H]5C[C@@H](O[C@@H]6O[C@H](CO)[C@@H](O[C@@H]7O[C@@H](C)[C@H](O)[C@@H](O)[C@H]7O)[C@H](O)[C@H]6O[C@@H]6O[C@@H](C)[C@H](O)[C@@H](O)[C@H]6O)CC[C@]5(C)C4=CC(=O)[C@]3(C)[C@H]1[C@@H]2C` showed an IC50 with HL-60 [1] of 30.4 µM.

Turning to `CO[C@H]1C[C@H]2[C@@H](CC[C@H]3C[C@@H](O[C@@H]4O[C@H](CO)[C@@H](O[C@@H]5O[C@@H](C)[C@H](O)[C@@H](O)[C@H]5O)[C@H](O)[C@H]4O[C@@H]4O[C@@H](C)[C@H](O)[C@@H](O)[C@H]4O)CC[C@@]32C)[C@@H]2C[C@@H]3O[C@]4(CC[C@@H](C)CO4)[C@@H](C)[C@@H]3[C@@]12C`, the IC50 in the series with HL-60 [1] is 31.5 µM.

`CO[C@@H]1C[C@H]2[C@@H](CC[C@H]3C[C@@H](O[C@@H]4O[C@H](CO)[C@@H](O[C@@H]5O[C@@H](C)[C@H](O)[C@@H](O)[C@H]5O)[C@H](O)[C@H]4O[C@@H]4O[C@@H](C)[C@H](O)[C@@H](O)[C@H]4O)CC[C@@]32C)[C@@H]2C[C@@H]3O[C@]4(CC[C@@H](C)CO4)[C@@H](C)[C@@H]3[C@@]12C` yielded an IC50 in the series with HL-60 [1] of 21.8 µM.

Molecule `C[C@@H]1CC[C@@]2(OC1)O[C@H]1C[C@H]3[C@@H]4CC[C@H]5C[C@@H](O[C@@H]6O[C@H](COC(=O)C(C)(C)C)[C@@H](O)[C@H](OC(=O)C(C)(C)C)[C@H]6O)CC[C@]5(C)[C@H]4CC(=O)O[C@]3(C)[C@H]1[C@@H]2C` showed a half-maximal inhibitory concentration (IC50) with HL-60 [1] of 9.9 µM. The outcome with HL-60 [2] was Active. Also, in the series on PBMC, the Activity entry was “Toxic”.

In turn, `CO[C@@H]1C[C@H]2[C@@H](CC[C@H]3C[C@@H](O[C@@H]4O[C@H](COC(=O)C(C)(C)C)[C@@H](O)[C@H](OC(=O)C(C)(C)C)[C@H]4O)CC[C@@]32C)[C@@H]2C[C@@H]3O[C@]4(CC[C@@H](C)CO4)[C@@H](C)[C@@H]3[C@@]12C` yielded an IC50 in the series with HL-60 [1] of 19.2 µM. Besides, the result in the series with HL-60 [2] was Active. Moreover, in the series on PBMC, the Activity entry is “Toxic”.

Molecule `CO[C@H]1C[C@H]2[C@@H](CC[C@H]3C[C@@H](O[C@@H]4O[C@H](COC(=O)C(C)(C)C)[C@@H](O)[C@H](OC(=O)C(C)(C)C)[C@H]4O)CC[C@@]32C)[C@@H]2C[C@@H]3O[C@]4(CC[C@@H](C)CO4)[C@@H](C)[C@@H]3[C@@]12C` came in with a half-maximal inhibitory concentration (IC50) in the series with HL-60 [1] of 21.5 µM.
